Legend:
[1] = system: primary AML cells from a relapsed AML patient; assay: AML PDX mouse model; details: i.p.
Experimental: (§3) The experiment was repeated with secondary BMT with MA9 leukemic cells. […] 1×10^6 mononuclear cells (MNCs) were isolated from bone marrow of the AML patients and transplanted into NRGS recipient mice. Drug treatment (5 mg/kg/day, every other day treatment, 10 times in total) was started from day 8 after transplantation.
As PDX mouse models, 1×10^6 AML patient derived cells were transplanted into NRGS recipient mice intravenously, and drug treatment was started from 7 days later.

[2] = system: AML patient-derived CD34+ cells; assay: Cell viability of AML patient-derived CD34+ cells; assay type: cell-based, human; details: 100 nM formula (I), 200 nM formula (II), 48 hours
AML cells = assay: Sensitization of AML cells to other therapeutic agents; details: for effect with TKI in inhibiting viability: human AML cells
breast tumors = assay: Anti-tumor effects in solid tumors; assay type: cell-based
Excerpt: (§1) Besides in hematopoietic malignancy, FTO also plays oncogenic function in solid tumors, such as glioblastoma (GBM) and lung squamous cell carcinoma (LUSC). To broaden the application of the FTO inhibitors in additional cancers, expression of FTO in various types of cancers was adopted from cBioPortal for Cancer Genomics (http://www.cbioportal.org/).
(§2) Cell culture: For leukemia cells, U937 and MV4-11 were obtained from American Type Culture Collection (ATCC) and cultured in endotoxin-free RPMI1640 supplemented with 10% fetal bovine serum (FBS) (Gemini Bio-Products); K562 (ATCC) was cultured in IMDM with 10% FBS; NOMO-1, ML-2, NB4 were obtained from DSMZ and kept in RPM11640 with 10% FBS; SKNO-1 (DSMZ) was maintained in RPM11640 with 10% FBS and 10 ng/ml GM-CSF; MA9.3ITD (MLL-AF9 plus FLT3-ITD-transformed human CD34^+ cord blood) and MA9.3RAS (MLL-AF9 plus NRasG12D-transformed human CD34^+ cord blood), established by Dr. James Mulloy (30), were maintained in IMDM supplemented with 20% FBS. AML patient-derived primary cells were kept in IDMD supplemented with 20% FBS, 10 ng/ml human cytokines SCF, TPO, FLT3 ligand, IL-3, and IL-6. The glioblastoma cell lines, including 8MGBA, A172 and U87MG were originally maintained by Dr. David Plas from University of Cincinnati, and cultured in RPMI1640 with 10% FBS. Breast tumor cell lines, including ZR-75-1 and MDA-MB-231, were purchased from ATCC, and cultivated in RPMI1640 with 10% FBS. The cell lines from lung cancer, H1993, H2009, and H1437, and pancreatic cancer cells Capan-1 and miAPACA2 were kindly provided by Dr. Ravi Salgia from City of hope, and maintained in RPMI1640 with 10% FBS. All the cells are not among commonly misidentified cells lines, and were tested for Mycoplasma contamination yearly using a PCR Mycoplasma Detection Kit (Applied Biological Materials Inc.). In order to prevent potential contamination, all the mediums were supplemented with Penicillin-Streptomycin (15140122, Life Technologies) and Plasmocin prophylactic (Applied Biological Materials Inc.) according to the manufacture's instruction.

Glioma = assay: Anti-tumor effects in solid tumors; assay type: cell-based
Excerpt: as §1, §2

pancreatic cancer = assay: Anti-tumor effects in solid tumors; assay type: cell-based
Excerpt: as §1, §2

NOMO-1 cells = assay: Cell apoptosis assay; assay type: cell-based; details: 48 hour; 50, 200, 400 nM formula (I); 100, 500, 1000 nM formula (II)
Experimental: Cell cycle and apoptosis assays: Propidium Iodide (PI) DNA staining was chosen to assess the cells located at G0/G1, S, and G2/M stages; while Hoechest 33342 and Pyronin Y was selected to evaluate cells at G0, G1, and S/G2/M phases. For PI staining, 1*10^6 cells were collected, washed once with PBS, and suspended in 1 ml buffer with 0.05 mg/ml PI, 0.1% trisodium citrate, 0.02 mg/ml ribonuclease A, 0.3% NP-40, incubated at 37° C. for 30 minutes, and then applied to flow cytometer directly. As Hochest 33342/Pyronin Y staining, the cells were collected, washed, and re-suspended in 1 ml cell culture medium, stained with 10 μg/ml Hochest 33342 at 37° C. for 45 minutes, and further stained with 0.5 μg/ml Pyronin Y for additional 15 minutes at 37° C. The samples were transferred onto ice before subjected to flow cytometry. Cell apoptosis was validated with PE Annexin V Apoptosis Detection Kit I (559763, BD Biosciences) according to the instructed protocol. Flow cytometry was performed with Fortessa X20 and the related results were analyzed with FlowJo V10 software.

MA9.3ITD AML cells = assay: Xenograft AML mouse model with MA9.3ITD cells; details: cells pretreated 100 nM 48 hours; 2 mg/kg/day every other day i.p., ten treatments
Experimental: For xenograft AML models with NRGS mice, the leukemia AML cells, with high endogenous FTO expression, were pretreated with 100 nM FTO inhibitors for 48 hours before transplantation, and drug treatment was started at day 11 after transplantation.
Xenograft AML mouse models and AML PDX mouse models: NRG-SGM3 mice were used for both ‘human-in-mouse’ xeno-transplanation models and PDX models. […] For xenograft mouse, 0.1×10^6 MA9.3ITD cells were transplanted into NRGS recipient mice intravenously. Drug treatment was started from 10 days after transplanatation.

[3] = system: PD-L1 and PD-L2 in AML cells (MONOMAC 6); assay: Expression of PD-L1 and PD-L2 upon DNMT inhibitor treatment; details: for expression of PD-L1/2: in AML
Experimental: Expression of PD-L1, PD-L2, and m^6A abundance upon DNMT inhibitor treatment in AML cells was analyzed. MONOMAC 6 cells were treated with PBS, 1 μM, 3 μM, and 5 μM DAC for 48 hours.

[4] = Solubility and uptake after i.p. injection (dissection); assay type: physicochemical, mice; details: yellow/orange crystals in abdomen
Experimental: Mice from PDX mouse model were treated with compound of formula (I) via i.p. injection and later dissected.

MONOMAC 6 cells = assay: Response to DNMT inhibitors after pretreatment; assay type: cell-based; details: pretreated 64 nM 48 hours; 100 nM DAC or 100 nM AZA
[5] = system: murine FLT3ITD/NPM1mut leukemic cells; assay: Colony forming assay; details: 10 nM or 50 nM
Experimental: (§4) Serial colony-forming assay: The assay was employed as described previously with some modification (31). […] The dishes were incubated at 37° C. in a humidified atmosphere of 5% C02 in air for 7 days. Then, colony cells were collected and replated every 7 days with 20,000 cells/dish for 3 passages. Colony numbers were counted and compared for each passage.

NB4 cells = assay: Combination with DNMT inhibitors, cell growth; assay type: cell-based; details: 48 hours, 256 nM formula (IIa)
Experimental: Cell proliferation was measured. […] This experiment was repeated with NB4 cells. […] Synergistic inhibitory effect of FTO inhibitor together with DNMT inhibitor on cell proliferation was observed.
NB4 AML cells were treated with 256 nM compound of formula (IIa), 1000 nM AZA, 100 nM DAC, or their combinations for 48 hours. Effects of compound of formula (IIa), DAC, AZA and combined effects of compound of formula (IIa) with either DAC or AZA on […] AML cell growth was measured (FIG. 9D).

HONO-1 AML cells = assay: Combination with DNMT inhibitors, cell growth; assay type: cell-based; details: 256 nM formula (IIa), 48 hours
Experimental: HONO-1 AML cells were treated with 256 nM compound of formula (IIa), 1000 nM AZA, 100 nM DAC, or their combinations for 48 hours. Effects of compound of formula (IIa), DAC, AZA and combined effects of compound of formula (IIa) with either DAC or AZA on HONO-1 AML cell growth was measured (FIG. 9C).

[6] = system: primary murine MLL-AF9 (MA9) leukemic cells; assay: Colony forming assay; details: 1 μM
Experimental: MA9 murine leukemic cells were used for colony forming assay.
as §4

Experimental for MA9 murine AML cells: as §3
The study was done following secondary BMT with murine MA9 cells, where drug treatment was initiated 7 days after BMT. […] Treatment strategy for DAC: 0.1 mg/kg/day, three times for one week, two weeks in total, i.p. injection.
The Lin^− progenitor cells were retrovirally transduced with MSCV-Neo-MA9 construct through two rounds of ‘spinoculation’ as described previously (31). […] For secondary BMT assays, primary leukemic mouse bone marrow cells (CD45.2+) were collected and sorted by flow cytometry when the mice developed full-blown AML. The cells were injected into sub-lethally irradiated (570 rads) secondary recipient mice with 0.1×10^6 donor cells per mouse via tail vein injection.

SMILES | cell viability [2] | sensitization to ATRA, DNR, Ara-C, Aza and DAC (AML cells) | effect with TKI in inhibiting viability (AML cells) | growth (breast tumors) | growth (Glioma) | growth (pancreatic cancer) | cell apoptosis (NOMO-1 cells) | expression of PD-L1/2 [3] | further results
Cc1c(-c2ccc(-c3ccccc3F)cc2)nc2ccc(F)cc2c1C(=O)O [formula (II)] | significantly decreased cell viability of AML | sensitize AML cells | synergize with TKI | growth disadvantage | growth disadvantage | growth disadvantage | dose-dependent increase in cell apoptosis | – | effect with DAC on survival (Kaplan-Meier) (MA9 murine AML cells; 5 mg/kg/day FTO inhibitor, DAC 0.1 mg/kg/day i.p.): synergistic effect; anti-leukemia effects (delaying leukemogenesis, improving survival) (MA9 murine AML cells; 5 mg/kg/day every other day, ten treatments, i.p. or i.v. (micelle)): promising anti-leukemia effects; anti-leukemia effect, survival (Kaplan-Meier) ([1]; 5 mg/kg/day every other day, 10 times, in PBS): strong anti-leukemia effect; anti-leukemia effect, engraftment of AML patient cells into bone marrow ([1]; hCD45 and hCD33 positive cells at day 26): strong anti-leukemia effect
Cc1noc(C)c1-c1cc(Cl)c(Nc2ccccc2C(=O)NO)c(Cl)c1 [FB23-2, reference compound] | – | – | – | – | – | – | – | – | survival (Kaplan-Meier) (MA9.3ITD AML cells): lived significantly longer than the control groups
Nc1ncn([C@H]2C[C@H](O)[C@@H](CO)O2)c(=O)n1 [DAC, 5-aza-2′-deoxycytidine] | – | – | – | – | – | – | – | upregulation of PD-L1/2 | expression of PD-L1 and PD-L2 ([3]; MONOMAC 6, 1 μM, 3 μM, 5 μM, 48 hours): induced expression of PD-L1 and PD-L2 in a dose dependent manner
C(=N\NC1=NCCN1)/c1c2ccccc2c(/C=N/NC2=NCCN2)c2ccccc12 [formula (I)] | significantly decreased cell viability of AML | sensitize AML cells | synergize with TKI | growth disadvantage | growth disadvantage | growth disadvantage | dose-dependent increase in cell apoptosis | – | solubility and uptake [4]: extreme low solubility and uptake; inhibition of cell proliferation by DAC or AZA after pretreatment (MONOMAC 6 cells): increased inhibition in cell proliferation
O=C(O)c1cc(-c2ccc(-c3ccccc3)cc2)nc2ccccc12 [formula (IIa)] | – | – | – | – | – | – | – | – | inhibitory effect on colony forming activity compared with formula (II) [5]: slightly stronger inhibitory effect; colony forming activity ([5]; b415): dose dependent decreased colony forming activity; effect with DAC on cell growth (NB4 cells; 100 nM DAC): synergistic effects; effect with AZA on cell growth (NB4 cells; 1000 nM AZA): synergistic effects; effect with DAC on cell growth (HONO-1 AML cells; 100 nM DAC): synergistic effects; effect with AZA on cell growth (HONO-1 AML cells; 1000 nM AZA): synergistic effects; colony forming activity [6]: decreased colony forming activity; inhibitory effect on colony forming activity compared with formula (II) [6]: slightly stronger inhibitory effect
Nc1ncn([C@@H]2O[C@H](CO)[C@@H](O)[C@H]2O)c(=O)n1 [AZA, 5-azacytidine] | – | – | – | – | – | – | – | upregulation of PD-L1/2 | –

Source: patent US20220370434A1, “METHODS AND COMPOSITIONS FOR TREATING CANCER” (City of Hope, priority 2019, published 2022)
